# Laboratory results taken from patent US4740233A, “Substituted 1,2,4-triazolo[1,5-a]-pyrimidine-2-sulfonamides and compositions and methods of controlling undesired vegetation and suppressing the nitrification of ammonium nitrogen in soil” (The Dow Chemical Company, priority 1986, dated 1988).
# Legend:
# cotton = assay: Postemergent control of plant species; type: in vivo, Gossypium spp.; details: Gossypium hirsutum, post-emergence, 336 h, read-out: percent postemergent control
# In short: (§1)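 Spray emulsion: acetone stock at twice final concentration plus equal volume water with 0.1% wetting agent, applied to separated greenhouse beds at 2-4 leaf stage. Assessed at ~two weeks; score reflects growth reduction compared with untreated plants.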
# rape = assay: Postemergent control of plant species; type: in vivo, Brassica napus; details: Brassica napus, post-emergence, 336 h, read-out: percent postemergent control
# In short: as §1
# soybean = assay: Postemergent control of plant species; type: in vivo, Glycine max.; details: Glycine max, post-emergence, 336 h, read-out: percent postemergent control
# In short: as §1
# sugar beet = assay: Postemergent control of plant species; type: in vivo, Beta saccharifera; details: Beta vulgaris, post-emergence, 336 h, read-out: percent postemergent control
# In short: as §1
# cocklebur = assay: Postemergent control of plant species; type: in vivo, Xanthium spp.; details: Xanthium strumarium, post-emergence, 336 h, read-out: percent postemergent control
# In short: as §1
# jimsonweed = assay: Postemergent control of plant species; type: in vivo, Datura stramonium; details: Datura stramonium, post-emergence, 336 h, read-out: percent postemergent control
# In short: as §1
# annual morning glory = assay: Postemergent control of plant species; type: in vivo, Ipomoea spp.; details: Ipomoea, post-emergence, 336 h, read-out: percent postemergent control
# In short: as §1
# pigweed = assay: Postemergent control of plant species; type: in vivo, Amaranthus spp.; details: Amaranthus retroflexus, post-emergence, 336 h, read-out: percent postemergent control
# In short: as §1
# velvetleaf = assay: Postemergent control of plant species; type: in vivo, Abutilon theophrasti; details: Abutilon theophrasti, post-emergence, 336 h, read-out: percent postemergent control
# In short: as §1
# corn = assay: Postemergent control of plant species; type: in vivo, Zea mays; details: Zea mays, post-emergence, 336 h, read-out: percent postemergent control
# In short: as §1
# rice = assay: Postemergent control of plant species; type: in vivo, Oryza sativa; details: Oryza sativa, post-emergence, 336 h, read-out: percent postemergent control
# In short: as §1
# sorghum = assay: Postemergent control of plant species; type: in vivo, Sorghum vulgare; details: Sorghum, post-emergence, 336 h, read-out: percent postemergent control
# In short: as §1
# wheat = assay: Postemergent control of plant species; type: in vivo, Triticum aestivum; details: Triticum aestivum, post-emergence, 336 h, read-out: percent postemergent control
# In short: as §1
# barnyardgrass = assay: Postemergent control of plant species; type: in vivo, Echinochloa crusgalli; details: Echinochloa crus-galli, post-emergence, 336 h, read-out: percent postemergent control
# In short: as §1
# crabgrass = assay: Postemergent control of plant species; type: in vivo, Digitaria spp.; details: Digitaria sanguinalis, post-emergence, 336 h, read-out: percent postemergent control
# In short: as §1
# yellow foxtail = assay: Postemergent control of plant species; type: in vivo, Setaria lutescens; details: Setaria, post-emergence, 336 h, read-out: percent postemergent control
# In short: as §1
# johnson grass = assay: Postemergent control of plant species; type: in vivo, Sorghum halepense; details: Sorghum halepense, post-emergence, 336 h, read-out: percent postemergent control
# In short: as §1
# wild oats = assay: Postemergent control of plant species; type: in vivo, Avena fatua; details: Avena fatua, post-emergence, 336 h, read-out: percent postemergent control
# In short: as §1
# yellow nutsedge = assay: Postemergent control of plant species; type: in vivo, Cyperus esculentus; details: Cyperus, post-emergence, 336 h, read-out: percent postemergent control
# In short: as §1
# [1] = tested on: nitrification of ammonium nitrogen; assay: Suppression of nitrification of ammonium nitrogen in soil; details: 27° C.
# In short: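 Value is % NH4-N remaining after a two-week, 27° C incubation of treated soil held at 1/3 bar tension moisture. Nitrate was measured with an ion-selective electrode after extraction with ammonium sulfate solution and 10 min shaking.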
Structure (SMILES),plant injury at 500 ppm (cotton),plant injury at 500 ppm (rape),plant injury at 500 ppm (soybean),plant injury at 500 ppm (sugar beet),pest or weed control at 500 ppm (cocklebur),pest or weed control at 500 ppm (jimsonweed),pest or weed control at 500 ppm (annual morning glory),pest or weed control at 500 ppm (pigweed),pest or weed control at 500 ppm (velvetleaf),plant injury at 500 ppm (corn),plant injury at 500 ppm (rice),plant injury at 500 ppm (sorghum),plant injury at 500 ppm (wheat),pest or weed control at 500 ppm (barnyardgrass),pest or weed control at 500 ppm (crabgrass),pest or weed control at 500 ppm (yellow foxtail),pest or weed control at 500 ppm (johnson grass),pest or weed control at 500 ppm (wild oats),pest or weed control at 500 ppm (yellow nutsedge),% NH4-N Remaining After 2 Weeks Incubation ([1]; 1 ppm),further results
Cc1nc2nc(S(=O)(=O)Nc3ccccc3C(F)(F)F)nn2c2c1CCC2 [Compound 106],30%,40%,90%,0%,90%,0%,80%,40%,0%,90%,30%,40%,20%,30%,0%,0%,90%,30%,0%,88%,% NH4-N Remaining After 2 Weeks Incubation ([1]; 0.01 ppm): 29%; % NH4-N Remaining After 2 Weeks Incubation ([1]; 0.1 ppm): 56%; % NH4-N Remaining After 2 Weeks Incubation ([1]; 10 ppm): 96%
"O=S(=O)(Nc1c(F)cccc1F)c1nc2ncc(Cl)cn2n1 [Compound 117, 6-chloro-N-(2,6-difluorophenyl)-1,2,4-triazolo[1,5-a]pyrimidine-2-sulfonamide]",90%,100%,35%,100%,100%,100%,80%,75%,100%,0%,0%,60%,0%,0%,0%,65%,75%,0%,25%,41%,% NH4-N Remaining After 2 Weeks Incubation ([1]; 0.06 ppm): 32%; % NH4-N Remaining After 2 Weeks Incubation ([1]; 0.25 ppm): 24%; % NH4-N Remaining After 2 Weeks Incubation ([1]; 4 ppm): 72%
O=S(=O)(Nc1ccccc1C(F)(F)F)c1nc2ncccn2n1 [Compound 136],30%,80%,30%,80%,98%,30%,40%,90%,70%,0%,0%,0%,0%,0%,0%,0%,0%,0%,0%,67%,% NH4-N Remaining After 2 Weeks Incubation ([1]; 0.01 ppm): 0%; % NH4-N Remaining After 2 Weeks Incubation ([1]; 0.1 ppm): 10%; % NH4-N Remaining After 2 Weeks Incubation ([1]; 10 ppm): 98%
CCOc1cnc2nc(S(=O)(=O)Nc3ccccc3C(F)(F)F)nn2c1 [Compound 201],0%,20%,0%,50%,80%,70%,0%,90%,60%,0%,0%,0%,0%,0%,0%,0%,0%,0%,0%,56%,% NH4-N Remaining After 2 Weeks Incubation ([1]; 0.06 ppm): 0%; % NH4-N Remaining After 2 Weeks Incubation ([1]; 0.25 ppm): 11%; % NH4-N Remaining After 2 Weeks Incubation ([1]; 4 ppm): 67%
Cc1cc(C)n2nc(S(=O)(=O)Nc3c(C)nn(C)c3C(F)(F)F)nc2n1 [Compound 247],0%,70%,70%,70%,20%,20%,0%,70%,40%,0%,0%,0%,0%,0%,0%,0%,0%,0%,0%,58%,% NH4-N Remaining After 2 Weeks Incubation ([1]; 0.06 ppm): 58%; % NH4-N Remaining After 2 Weeks Incubation ([1]; 0.25 ppm): 47%; % NH4-N Remaining After 2 Weeks Incubation ([1]; 4 ppm): 82%
